Measured values as given in patent publication US20240067657A1, “AMIDO-SUBSTITUTED PYRIDYL COMPOUNDS AND METHODS OF USE THEREOF FOR THE TREATMENT OF HERPESVIRUSES” (Merck Sharp & Dohme LLC, priority 2020, published 2024).
Where two headings read alike, the source gives them in different places.

What was measured:
[1] = system: HSV-1 Strain F in Vero or MRC5 cells; assay: Viral qPCR assay HSV-1 (V0/V1, V2/V3), EC50; format: cell-based; conditions: Human alphaherpesvirus 1, MRC5, MRC5 cells, 10%; read-out: HSV1 Cell (EC50) MRC5 10%
Procedure: (§1) Viral qPCR Assays (V0/V1)
(§2) MRC5 cells, Vero cells, and MeWo cells were obtained from ATCC and were maintained at 37° C./5% CO2/90% relative humidity in Minimal Essential Medium with 10% fetal bovine serum, […] L-glutamine, 100 units/ml penicillin and 100 ug/ml streptomycin. Assay plates were prepared by dispensing compounds dissolved in DMSO into wells of 384 well collagen-coated plates using an ECHO acoustic dispenser. Each compound was tested in a 10-point, serial 3-fold dilution. Controls included uninfected cells and infected cells treated only with DMSO. Assays were initiated by mixing selected cells, in suspension, with virus, and dispensing 50 μl/well infected cells to pre-plated compounds. Plates were incubated at 37° C./5% CO2/90% relative humidity for ˜72 hrs to permit genomic replication, and infected cells were lysed by the addition of an equal volume of lysis buffer (10 mM Tris-HCl, pH8, 50 mM KCl, 2 mM MgCl2, 0.45% NP-40, 0.45% Tween-20, and 100 μg/ml proteinase K). An aliquot of the lysate was transferred to a 384-well PCR plate and incubated at 56° C. for 1 hour and then at 95° C. for 10 min. Levels of a viral gene and of the cellular control, PPIA (Thermo Fisher Assay ID=Hs04194521_s1), were measured in separate 10 μL qPCR assays using TaqMan® Gene Expression Master Mix (Applied Biosystems), and an 7900HT Fast Real-Time PCR System with 384-Well Block Module. 7-point, serial 10-fold dilutions of a plasmid standard were run on each plate to generate a standard curve, and genome copies numbers were calculated by plotting experimental Ct onto linear regression of the standard curve. Viral genome copy numbers were normalized by cellular control copy number, and compound effects were normalized to the window defined by the controls. Calculated % effects were fit using a 4-parameter algorithm, and EC50 was reported.
(§3) Viral qPCR Assays (V2/V3)
as §2, with “gene” for “gene and of the cellular control, PPIA (Thermo Fisher Assay ID=Hs04194521_s1),”, “in” for “in separate”, “Compound effects on viral” for “Viral”, “number” for “numbers were normalized by cellular control copy number, and compound effects”, “reported. • HCMV: Strain AD169 Street was assayed in MRC-5 cells and was used at 0.05-0.1 pfu/cell. The assays were performed in either growth media or in the same media with 50% fetal bovine serum. Primer-probe set was Thermo Fisher Assay ID=AIFATFK. • VZV: Strain Street was maintained as an infected cell stock in MRC-5 cells. It was assayed in MeWo or MRC5 cells and was used at 0.04-0.1 pfu/cell. […]” for “reported.”

[2] = molecular target: T1, Human cytomegalovirus DNA polymerase (Human cytomegalovirus, UniProt P08546); assay: HCMV polymerase assay (AlphaLISA, IC50); format: biochemical; conditions: polymerase assay of Example 190
T1 construct: made in house; host or cells: SF21 insect cells (baculovirus vector)
T1 sequence (P08546 whole entry): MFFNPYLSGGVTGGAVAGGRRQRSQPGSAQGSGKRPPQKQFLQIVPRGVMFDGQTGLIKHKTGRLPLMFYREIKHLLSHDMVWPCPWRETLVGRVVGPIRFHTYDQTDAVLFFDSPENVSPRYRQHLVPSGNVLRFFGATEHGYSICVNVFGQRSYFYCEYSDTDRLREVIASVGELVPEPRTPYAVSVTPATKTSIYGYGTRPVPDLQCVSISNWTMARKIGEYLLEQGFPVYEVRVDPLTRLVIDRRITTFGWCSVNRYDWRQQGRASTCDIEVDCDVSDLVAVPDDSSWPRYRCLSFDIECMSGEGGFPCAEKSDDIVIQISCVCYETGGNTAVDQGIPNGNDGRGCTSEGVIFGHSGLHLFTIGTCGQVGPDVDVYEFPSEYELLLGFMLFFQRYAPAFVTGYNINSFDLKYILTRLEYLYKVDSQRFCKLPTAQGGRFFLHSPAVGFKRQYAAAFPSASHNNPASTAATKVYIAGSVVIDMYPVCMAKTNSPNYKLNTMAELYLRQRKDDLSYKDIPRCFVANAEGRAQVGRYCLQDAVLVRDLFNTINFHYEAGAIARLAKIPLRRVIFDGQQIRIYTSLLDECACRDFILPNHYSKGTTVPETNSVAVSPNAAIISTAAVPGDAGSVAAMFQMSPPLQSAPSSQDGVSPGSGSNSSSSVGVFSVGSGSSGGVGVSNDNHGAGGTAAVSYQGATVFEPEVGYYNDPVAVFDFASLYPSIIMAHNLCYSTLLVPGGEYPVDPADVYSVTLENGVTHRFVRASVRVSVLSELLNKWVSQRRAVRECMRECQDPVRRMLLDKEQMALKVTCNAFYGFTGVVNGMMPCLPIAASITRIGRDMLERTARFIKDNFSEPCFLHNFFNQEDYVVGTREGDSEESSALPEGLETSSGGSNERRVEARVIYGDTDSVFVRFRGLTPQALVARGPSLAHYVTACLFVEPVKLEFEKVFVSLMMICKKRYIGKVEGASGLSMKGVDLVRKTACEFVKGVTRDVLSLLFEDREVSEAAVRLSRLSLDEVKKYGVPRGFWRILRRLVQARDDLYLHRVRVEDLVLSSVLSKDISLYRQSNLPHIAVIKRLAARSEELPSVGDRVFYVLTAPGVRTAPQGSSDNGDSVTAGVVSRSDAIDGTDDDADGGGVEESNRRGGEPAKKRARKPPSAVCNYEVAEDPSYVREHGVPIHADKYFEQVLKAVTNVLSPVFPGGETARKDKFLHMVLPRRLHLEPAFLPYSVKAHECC
Procedure: Human cytomegalovirus and varicella zoster virus DNA polymerases were expressed via baculovirus vector in SF21 cells and purified. Heterodimeric nucleic acid substrate used in the herpesvirus polymerase reactions was generated by annealing a 59-mer template to a 17-mer digoxigenin-labeled primer. Polymerase (HCMV final concentration of 0.2 nM; VZV final concentration of 0.4 nM) was combined with an inhibitor compound or DMSO in assay buffer (10 mM HEPES, pH 7.5, 25 mM KCl, 25 mM NaCl, 5 mM MgCl2, 5% glycerol, 0.67 mg/ml bovine serum albuminutes, and 1 mM tris(2-carboxyethyl)phosphine), and this mixture was pre-incubated for 30 minutes at room temperature in 384-well microtiter plates. The polymerization reaction was initiated by the addition of template/primer substrate (final concentration: 1.6 nM), and dNTPs (final concentration: 24 nM dCTP, 24 nMdGTP, 16 nM dATP, 16 nM dTTP, and 0.8 nM biotin-dUTP). After 60 minutes incubation at 37° C., reactions were terminated with quench buffer (25 mM HEPES pH 7.5, 100 mM NaCl, 0.25% Tween-20, 12 mM EDTA, and 1 mg/ml bovine serum albumin). Incorporation of biotinylated UTP was detected with 2.5-5 ug/ml anti-DIG AlphaLISA acceptor beads and 5-10 ug/ml streptavidin AlphaLISA donor beads (Perkin Elmer). Compound effects were normalized to the window defined by the controls (DMSO only and pre-quenched wells), and were fit using a 4-parameter algorithm to report an IC50.

[3] = system: HCMV Strain AD169 in MRC-5 cells; assay: Viral qPCR assay HCMV (V0/V1, V2/V3), EC50; format: cell-based
Procedure: as §1, §2, §3
as §2, with “gene” for “gene and of the cellular control, PPIA (Thermo Fisher Assay ID=Hs04194521_s1),”, “in” for “in separate”, “Compound effects on viral” for “Viral”, “number” for “numbers were normalized by cellular control copy number, and compound effects”, “reported. • HCMV: Strain AD169 Street was assayed in MRC-5 cells and was used at 0.05-0.1 pfu/cell. The assays were performed in either growth media or in the same media with 50% fetal bovine serum. Primer-probe set was Thermo Fisher Assay ID=AIFATFK. • VZV: Strain Street was maintained as an infected cell stock in MRC-5 cells. It was assayed in MeWo or MRC5 cells and was used at 0.04-0.1 pfu/cell. […]” for “reported.”

[4] = system: VZV in MeWo or MRC5 cells; assay: Viral qPCR assay VZV (V0/V1, V2/V3), EC50; format: cell-based; conditions: Human alphaherpesvirus 3, MRC5, MRC5 cells, 10%; read-out: VZV Cell (EC50) MRC5 10%
Procedure: as §1, §2, §3
as §2, with “gene” for “gene and of the cellular control, PPIA (Thermo Fisher Assay ID=Hs04194521_s1),”, “in” for “in separate”, “Compound effects on viral” for “Viral”, “number” for “numbers were normalized by cellular control copy number, and compound effects”, “reported. • HCMV: Strain AD169 Street was assayed in MRC-5 cells and was used at 0.05-0.1 pfu/cell. The assays were performed in either growth media or in the same media with 50% fetal bovine serum. Primer-probe set was Thermo Fisher Assay ID=AIFATFK. • VZV: Strain Street was maintained as an infected cell stock in MRC-5 cells. It was assayed in MeWo or MRC5 cells and was used at 0.04-0.1 pfu/cell. […]” for “reported.”

[5] = Human betaherpesvirus 5, AD169, MRC5, viral qPCR assay of Example 191, read-out: HCMV Cell (EC50)

Structure (SMILES) | IC50 [2] [nM] | EC50 [1] [nM] | EC50 [3, 5] [nM] | EC50 [4] [nM] | EC50 ([3]; Human betaherpesvirus 5, AD169, MRC5, read-out: HCMV Cell (EC50)) [nM]
O=C(NCc1cc(F)c(Cl)c(F)c1)c1cc(O[C@H]2CCN3C(=O)OC[C@@H]3C2)c(-c2cnn(C(F)F)c2)cn1 [Compound 80] | 8.76 | 247 | 248 | 401 | 
CN1CCN(c2cc(C(=O)NCc3ccc(C#N)cc3)ncc2C#N)[C@H](CF)C1 [Compound 174] | 36.5 | 966 | 472 | 1190 | 
C[C@@H]1CN(C)CCN1c1cc(C(=O)NCc2ccc(C#N)cc2)ncc1C#N [Compound 172] | 128 | 4190 | 419 | 4060 | 
O=C(c1cc(O[C@H]2CCN3C(=O)OC[C@@H]3C2)c(-c2cnn(C(F)F)c2)cn1)N(CO)Cc1ccc(Cl)cc1 [Compound 180] | 29.2 | 176 | 183 | 265 | 
O=C(NCc1ccc(C(F)(F)F)cc1)c1cc(O[C@H]2CCN3C(=O)OC[C@@H]3C2)c(-c2cnn(C(F)F)c2)cn1 [Compound 104] | 273 |  | 5980 |  | 
CN1CCC(C(=O)OCN(Cc2ccc(Cl)cc2)C(=O)c2cc(O[C@H]3CCN4C(=O)OC[C@@H]4C3)c(-c3cnn(C(F)F)c3)cn2)CC1 [Compound 183] | 201 |  | 150 |  | 
O=C(NCc1ccc(I)cc1)c1cc(O[C@H]2CCN3C(=O)OC[C@@H]3C2)c(-c2cnn(C(F)F)c2)cn1 [Compound 89] | 187 |  | 1520 |  | 
C[C@@H]1CN(C)CCN1c1cc(C(=O)NCc2ccc(Cl)cc2)nc(-c2cnn(CCO)c2)c1 [Compound 177] | 601 |  |  |  | 1410
COCCOC(=O)N(Cc1ccc(Cl)cc1)C(=O)c1cc(O[C@H]2CCN3C(=O)OC[C@@H]3C2)c(-c2cnn(C(F)F)c2)cn1 [Compound 179] | 107 |  | 1390 |  | 

More lines, main results first:

IC50 [2] [nM] | Structure (SMILES) | EC50 [1] [nM] | EC50 [3, 5] [nM] | EC50 [4] [nM] | EC50 ([3]; Human betaherpesvirus 5, AD169, MRC5, read-out: HCMV Cell (EC50)) [nM]
407 | Cc1cnc(C(=O)NCc2ccc(Cl)cc2)cc1OC1CCC(=O)N(C)CC1 (stereo not shown) [Compound 99] |  | 4010 |  | 
151 | CC(=O)N1CCC(Oc2cc(C(=O)NCc3ccc(Cl)cc3)ncc2-c2cn(C)nn2)CC1 [Compound 59] |  | 976 |  | 
804 | CS(=O)(=O)c1cnc(C(=O)NCc2ccc(Cl)cc2)cc1O[C@H]1CCN2C(=O)OC[C@@H]2C1 [Compound 147] |  | 12700 |  | 
160 | CC(C)(O)C12CC(C1)N(c1cnc(C(=O)NCc3ccc(Cl)cc3)cc1O[C@H]1CCN3C(=O)OC[C@@H]3C1)C2 [Compound 123] |  | 1310 |  | 
136 | CC(=O)N1CCC(Oc2cc(C(=O)NCc3ccc(Cl)cc3)ncc2-c2cnsc2)CC1 [Compound 47] |  | 1160 |  | 
135 | CC(=O)N1CCC(Oc2cc(C(=O)NCc3ccc(Cl)cc3)ncc2-c2cnn(C(F)F)c2)CC12CC2 (stereo not shown) [Compound 160] |  | 1400 |  | 
36.5 | CC(C)(O)C1CN(c2cnc(C(=O)NCc3ccc(Cl)cc3)cc2O[C@H]2CCN3C(=O)OC[C@@H]3C2)C1 [Compound 121] |  | 257 |  | 
197 | CC(=O)N1CCC(Oc2cc(C(=O)NCc3ccc(Cl)cc3)ncc2-c2ccsn2)CC1 [Compound 60] |  | 1490 |  | 
38.8 | O=C(NCc1ccc(Cl)cc1)c1cc(O[C@H]2CCN3C(=O)OC[C@@H]3C2)c(N2CC3(CC(O)C3)C2)cn1 [Compound 118] |  | 579 |  | 
65.2 | CC(C)(N)C1CCN(c2cnc(C(=O)NCc3ccc(Cl)cc3)cc2O[C@H]2CCN3C(=O)OC[C@@H]3C2)C1 (stereo partly shown) [Compound 119] |  | 747 |  | 
65.4 | CC(=O)N1CCC(Oc2cc(C(=O)NCc3ccc(Cl)cc3)ncc2-c2cn(C)c(CCO)n2)CC1 [Compound 55] |  | 781 |  | 
155 | CC(=O)N1CCC(Oc2cc(C(=O)NCc3ccc(Cl)cc3)ncc2-c2cnsn2)CC1 [Compound 58] |  | 1810 |  | 
56.5 | CC(=O)N1CCC(Oc2cc(C(=O)NCc3ccc(Cl)cc3)ncc2-c2cnoc2)CC1 [Compound 53] |  | 1840 |  | 
